# Data published in US7166761B2, “Method of screening PTPζ activity promoter or inhibitor” (priority 2000, dated 2007).
# Read-outs that look alike come from different tables or passages of the source.
# B1: pleiotrophin: a heparin-binding secretory protein of 18 kD that binds to extracellular regions of PTPζ (protein, UniProt P21246 33-168, looked up)
# Pleiotrophin: GKKEKPEKKVKKSDCGEWQWSVCVPTSGDCGLGTREGTRTGAECKQTMKTQRCKIPCNWKKQFGAECKYQFQAWGECDLNTALKTRTGSLKRALHNAECQKTVTISKPCGKLTKPKPQAESKKKKKEGKKQEKMLD
# Columns and labels:
# striatal synaptosomes = details: [3H] DA 1 to 10 nM, 30 degree C; for Km: read-out: [3H] DA uptake Km, mean±SEM of three
# Experimental: Dopamine (DA) uptake was measured as follows. Striatal synaptosome tissue pools (3 animals/pool) were homogenized in 100 volume (v/w) of 0.32 M sucrose in a teflonglass homogenizer and centrifuged at 12,000 rpm for 10 minutes. The crude synaptosomal pellet was resuspended in 0.32 M sucrose at a concentration of 30 mg/ml (original wet weight) and divided into 30 μl aliquots. Each aliquot was added with 270 μl of Krebs-Ringer phosphate buffer with increasing concentrations of [^3H] DA (final 1–10 nM, […], Amersham Pharmacia Biotech UK Ltd.). After incubating the resultant solution for 3 minutes at 30° C., uptake was quickly terminated by filtration through Whatman GF/C glass filters. The filters were rinsed three times with 2.5 ml ice-cold 0.32 M sucrose and measured by using a liquid scintillation counter at an efficiency of 50%. Blank values were measured in the presence of 10 μM GBR12909.
# [^3H] DA was mixed with striatal synaptosomes and [^3H] DA uptake into tissues was measured (the above-mentioned method A-6-1). The homogenate of the striatal synaptosomes was incubated for 2 minutes at 30° C. in the presence of [^3H] DA (1 to 10 nM).
# mice = experiment: Effects of psychostimulant drugs on locomotor activity; assay type: in vivo, mouse
# Experimental: The effects of psychostimulant drugs on locomotor activity were measured in a clear acrylic chamber (40×40×40 cm) by measuring animal movements with an electromagnetic activity monitoring system (sensor unit 0603, scanner 1099, Panlab). Before drug administration, the animals were acclimated to the measurement circumstance for at least 90 minutes. The animals were then administered with a stimulant drug, methamphetamine (METH) (1 mg/kg, s.c.), GBR12909 (2 mg/kg, i.p.), apomorphine (1 mg/kg, s.c.), or p-chloro-amphetamine (2 mg/kg, i.p.), and saline as administered to a control, and locomotor activity was monitored for the next 60 minutes.
# nucleus accumbens (NAC) = experiment: In vivo microdialysis of nucleus accumbens: METH-induced DA release and locomotion; parameters: species or system mouse
# Experimental: Mice were anaesthetized with sodium pentobarbital (80 mg/kg i.p.) and placed in a stereotaxic apparatus. A hole was drilled through the skull and an intracerebral guide cannula (CMA 11, CMA/Microdialysis AB) was inserted into the nucleus accumbens (NAC) and fixed with dental cement. The stereotaxic coordinates for implantation of the guide cannula in both wild-type and PTPζ-deficient mice were: anterior, +1.1 mm, ventral, +3.6 mm, lateral, +1.0 mm to the surface of bregma. 24 hours after the surgery, mice were chained to a counterbalance lever arm attached to a locomotor activity chamber (30×30 cm) with an infrared monitoring apparatus (SCANET LC-10, Toyo Sangyo Co., Ltd.). Dialysis probes (membrane length 1 mm; external diameter 0.24 mm; cuprophane CUP 11, CMA/Microdialysis AB) were inserted through the guide cannula and perfusion was performed with artificial cerebrospinal fluid (ACSF), pH 7.4, (in mM; 145.ONaCl, 2.7 KCl, 1.2 CaCl2, 1.0 MgCl2, and 2.0 NaH2PO4) at a flow rate of 2 μl/min. Perfusates were collected from freely moving animals every 20 minutes in a tube containing 20 μl of 0.4 M HClO4 (CMA 170). Samples were collected and assayed using HPLC-ECD as described above except for the following modifications: the column was MCM C-18 (4.6×150 mm) and the buffer contained 75 mM NaH2PO4, 1.7 mM 1-octanesulfonic acid sodium salt, 0.1 mM triethylamine, 25 μM EDTA·2Na and 10% acetonitrile, at flow rate of 0.55 ml/min at 30° C. The electrode was set at +320 mV. METH administration (1 mg/kg s.c.) or local infusion of high K^+ solution (in mM: 47.7 NaCl, 100.0 KCl, 1.2 CaCl2, 1.0 MgCl2, and 2.0 NaH2PO4, pH 7.4) through the microdialysis probe was performed after the state became steady.
# mouse gastric epithelium = experiment: Gastric ulcer formation caused by oral pleiotrophin; assay type: in vivo; details: 48 hours
# Experimental: The role of PTPζ in gastric ulcer formation caused by pleiotrophin was examined as follows. After a mouse (female) of 4 weeks old was starved for 24 hours (fed water ad libitum), pleiotrophin (Peptide Institute, Inc.) was orally administered to the mouse with a sound. 48 hours later, gastric specimens were prepared and the surface of inside wall of stomach was observed by a stereomicroscope, and then pathologic specimens were prepared by hematoxylen eosin staining and analyzed.
molecule,measurement,setting,value
"NCCc1ccc(O)c(O)c1 [[^3H] DA, dopamine]",[3H] DA uptake Vmax,striatal synaptosomes; PTPζ+/+ mice,45.74 ± 2.77 pmol/3 min/mg
same,[3H] DA uptake Vmax,striatal synaptosomes; PTPζ−/− mice,58.70 ± 1.03 pmol/3 min/mg
same,Km,striatal synaptosomes; PTPζ+/+ mice,0.109 ± 0.00245 µM
same,Km,striatal synaptosomes; PTPζ−/− mice,0.147 ± 0.0113 µM
CN1CCc2cccc3c2[C@H]1Cc1ccc(O)c(O)c1-3 [apomorphine],"locomotor activity, responsiveness of PTPζ-deficient mice","mice; 2 mg/kg, s.c., total counts during 60 minutes after administration",normal
CN[C@@H](C)Cc1ccccc1 [methamphetamine],"DA release in NAC, PTPζ-deficient compared to wild-type mice","nucleus accumbens (NAC); PTPζ−/− mice (n=6), 1 mg/kg, s.c., microdialysis",markedly diminished DA release
same,"METH-enhanced locomotion, PTPζ−/− compared to wild-type mice","nucleus accumbens (NAC); freely moving animals during microdialysis, infrared monitoring apparatus",statistically attenuated
same,extracellular DA in nucleus accumbens,"nucleus accumbens (NAC); wild-type mice (n=7), 1 mg/kg, s.c., microdialysis",definitely increased
same,"locomotor response, PTPζ−/− compared to wild-type mice","mice; 1 mg/kg, s.c., electromagnetic sensors, n=9 per genotype",significantly attenuated locomotor response
CC(N)Cc1ccc(Cl)cc1 (centres unmarked) [p-chloro-amphetamine],"locomotor activity, sensitivity of PTPζ-deficient mice","mice; 2 mg/kg, i.p., total counts during 60 minutes after administration, 5-HT liberator",hyposensitive
B1,hematoxylen eosin staining of gastric specimens,mouse gastric epithelium; PTPζ-deficient mice,totally normal
same,epithelial damage on gastric epithelium under a stereomicroscope,mouse gastric epithelium; PTPζ−/− mice,no damage was observed
same,epithelial damage on gastric epithelium under a stereomicroscope,mouse gastric epithelium; wild-type mice,Profuse bleeding
same,hematoxylen eosin staining of gastric specimens,mouse gastric epithelium; wild-type mice,obvious damage
